Laboratory results published in patent US20220370440A1 (Lead Discovery Center GmbH, priority 2018, published 2022).

Key:
[1] = biological target: T1, HER2 INS YVMA (Homo sapiens, UniProt P04626, INS775YVMA); test: Lance Kinase Activity Assay, HER2 INS YVMA (Her2 Exon 20 INSYVMA Lance); type: biochemical; conditions: biochemical Lance assay
T1 construct: purchased DPF
Outline: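 Kinase phosphorylates a ULight-labelled peptide substrate; Eu anti-phospho antibody gives TR-FRET (ex 340 nm, em 665/615 nm). Compounds in 1:3 serial dilution over 8 steps, reaction started with ATP, 1 h at room temperature, stopped with EDTA-containing detection mix for 1 h. IC50 from sigmoidal dose-response curves.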

[2] = biological target: Her2 Exon 20 INSYVMA Ba/F3 (Homo sapiens, UniProt P04626, DUP772-775, cells depend on it); test: Her2 Exon 20 INSYVMA Ba/F3 CellTiter-Glo; type: cell-based; conditions: CellTiter-Glo, 72 h, read-out: Her2 Exon 20 INSYVMA Ba/F3 CTG IC50
Outline: (§1)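 ATP-based luminescence (CellTiter-Glo) after 72 h compound exposure gives viability; IC50 from dose-response fit. Cells seeded 24 h ahead at 37 °C, 5% CO2. Controls: DMSO vehicle and 10 μM staurosporine; runs kept only if Z′ ≥0.5.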

[3] = biological target: EGFR Exon 20 INSNPH Ba/F3 (Homo sapiens, UniProt P00533, DUP771-773, cells depend on it); test: EGFR Exon 20 INSNPH Ba/F3 CellTiter-Glo; type: cell-based; conditions: CellTiter-Glo, 72 h, read-out: EGFR Exon 20 INSNPH Ba/F3 CTG IC50
Outline: as §1

[4] = biological target: EGFR T790ML858R (Homo sapiens, UniProt P00533, L858R/T790M); test: EGFR T790ML858R Lance assay; type: biochemical
Protocol: (§2) Inhibition is indicated as […] [nM] (“−”=not measured). Compounds having an activity designated as “A” provided an IC50≤100 nM; compounds having an activity designated as “B” provided an 100 nM<IC50≤500 nM; compounds having an activity designated as “C” provided an 500 nM<IC50≤1000 nM; compounds having an activity designated as “D” provided an 1000 nM<IC50≤100000 nM; and compounds having an activity designated as “E” provided an IC50>10000 nM.

[5] = biological target: EGFR wt (Homo sapiens, UniProt P00533); test: EGFR wt Lance assay; type: biochemical
Protocol: as §2

[6] = test system: H1975; test: H1975 CellTiter-Glo; type: cell-based; conditions: Homo sapiens, NCI-H1975; 72 h compound incubation; read-out: H1975 CTG IC50
Outline: (§3)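 Cells were seeded, left 24 h at 37° C. and 5% CO2, then exposed to compounds in DMSO at different concentrations for a further 72 h. Viability was read as ATP-dependent luminescence (CellTiter-Glo), and IC50 values were obtained from dose-response fits against DMSO and 10 μM Staurosporine controls.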

[7] = test system: A431; test: A431 CellTiter-Glo; type: cell-based; conditions: Homo sapiens, A-431; 72 h compound incubation; read-out: A431 CTG IC50
Outline: as §3

Sequence of EGFR T790ML858R (P00533 25-1210 T790M/L858R): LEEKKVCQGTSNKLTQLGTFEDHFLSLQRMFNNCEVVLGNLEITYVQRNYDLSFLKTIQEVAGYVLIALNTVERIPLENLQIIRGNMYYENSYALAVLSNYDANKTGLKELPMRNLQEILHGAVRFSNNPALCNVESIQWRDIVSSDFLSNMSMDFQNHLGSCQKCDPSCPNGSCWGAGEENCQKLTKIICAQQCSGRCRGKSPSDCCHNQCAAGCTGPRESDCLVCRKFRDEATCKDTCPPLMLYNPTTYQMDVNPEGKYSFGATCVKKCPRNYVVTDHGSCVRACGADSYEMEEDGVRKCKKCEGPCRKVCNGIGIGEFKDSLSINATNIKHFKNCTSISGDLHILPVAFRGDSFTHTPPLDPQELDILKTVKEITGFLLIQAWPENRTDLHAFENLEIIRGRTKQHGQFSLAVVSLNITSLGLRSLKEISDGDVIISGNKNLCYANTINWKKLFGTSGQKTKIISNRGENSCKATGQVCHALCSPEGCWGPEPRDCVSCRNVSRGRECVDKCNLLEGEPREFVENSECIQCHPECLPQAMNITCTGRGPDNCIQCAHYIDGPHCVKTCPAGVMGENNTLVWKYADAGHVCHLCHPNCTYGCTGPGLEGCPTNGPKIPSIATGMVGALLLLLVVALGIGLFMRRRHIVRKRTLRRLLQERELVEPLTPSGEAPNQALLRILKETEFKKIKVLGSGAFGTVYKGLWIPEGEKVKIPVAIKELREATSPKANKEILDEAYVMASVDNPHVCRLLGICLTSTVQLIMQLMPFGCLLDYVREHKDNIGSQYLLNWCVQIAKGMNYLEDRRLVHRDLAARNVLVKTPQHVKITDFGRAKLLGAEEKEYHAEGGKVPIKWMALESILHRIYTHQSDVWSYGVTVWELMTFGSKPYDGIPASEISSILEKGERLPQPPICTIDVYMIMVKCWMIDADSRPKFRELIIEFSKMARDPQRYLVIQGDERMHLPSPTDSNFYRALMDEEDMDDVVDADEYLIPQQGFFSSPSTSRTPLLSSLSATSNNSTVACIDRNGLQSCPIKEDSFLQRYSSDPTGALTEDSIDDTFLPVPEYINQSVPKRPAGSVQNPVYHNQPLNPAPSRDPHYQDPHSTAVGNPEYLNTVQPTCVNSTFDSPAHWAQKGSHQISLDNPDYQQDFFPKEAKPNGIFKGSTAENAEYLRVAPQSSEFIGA
Sequence of Her2 Exon 20 INSYVMA Ba/F3 (P04626 with tags, fused parts or gaps DUP772-775): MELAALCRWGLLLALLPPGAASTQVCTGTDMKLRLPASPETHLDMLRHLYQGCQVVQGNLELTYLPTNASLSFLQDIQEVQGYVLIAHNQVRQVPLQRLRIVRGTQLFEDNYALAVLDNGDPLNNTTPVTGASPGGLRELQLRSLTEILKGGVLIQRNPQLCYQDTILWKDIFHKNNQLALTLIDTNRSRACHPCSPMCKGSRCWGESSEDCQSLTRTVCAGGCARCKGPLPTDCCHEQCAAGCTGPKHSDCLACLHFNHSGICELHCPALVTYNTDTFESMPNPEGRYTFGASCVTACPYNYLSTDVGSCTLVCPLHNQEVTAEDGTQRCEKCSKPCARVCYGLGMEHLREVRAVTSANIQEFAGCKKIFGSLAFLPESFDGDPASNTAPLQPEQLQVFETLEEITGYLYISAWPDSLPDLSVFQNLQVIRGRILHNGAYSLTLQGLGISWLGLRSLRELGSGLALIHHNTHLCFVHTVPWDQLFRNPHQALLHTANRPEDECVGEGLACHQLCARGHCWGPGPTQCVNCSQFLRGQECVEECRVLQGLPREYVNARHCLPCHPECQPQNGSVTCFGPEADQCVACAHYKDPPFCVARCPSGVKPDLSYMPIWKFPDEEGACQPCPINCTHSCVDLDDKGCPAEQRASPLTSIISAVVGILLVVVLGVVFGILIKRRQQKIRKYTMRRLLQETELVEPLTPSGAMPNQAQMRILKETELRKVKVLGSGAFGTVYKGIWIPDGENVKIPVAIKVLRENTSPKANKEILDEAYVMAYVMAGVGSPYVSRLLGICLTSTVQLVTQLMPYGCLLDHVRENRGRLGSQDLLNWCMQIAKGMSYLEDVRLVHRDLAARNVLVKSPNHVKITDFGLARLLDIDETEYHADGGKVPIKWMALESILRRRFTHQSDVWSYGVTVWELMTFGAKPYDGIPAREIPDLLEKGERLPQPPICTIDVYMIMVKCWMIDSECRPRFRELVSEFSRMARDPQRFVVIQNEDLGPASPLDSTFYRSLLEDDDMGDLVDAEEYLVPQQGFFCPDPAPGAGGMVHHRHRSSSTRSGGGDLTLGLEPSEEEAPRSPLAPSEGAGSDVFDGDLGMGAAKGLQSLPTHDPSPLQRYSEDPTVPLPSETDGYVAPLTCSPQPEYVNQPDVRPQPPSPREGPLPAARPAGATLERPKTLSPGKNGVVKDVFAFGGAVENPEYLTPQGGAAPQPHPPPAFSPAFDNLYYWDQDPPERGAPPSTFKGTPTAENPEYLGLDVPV
T1 sequence (P04626 with tags, fused parts or gaps INS775YVMA): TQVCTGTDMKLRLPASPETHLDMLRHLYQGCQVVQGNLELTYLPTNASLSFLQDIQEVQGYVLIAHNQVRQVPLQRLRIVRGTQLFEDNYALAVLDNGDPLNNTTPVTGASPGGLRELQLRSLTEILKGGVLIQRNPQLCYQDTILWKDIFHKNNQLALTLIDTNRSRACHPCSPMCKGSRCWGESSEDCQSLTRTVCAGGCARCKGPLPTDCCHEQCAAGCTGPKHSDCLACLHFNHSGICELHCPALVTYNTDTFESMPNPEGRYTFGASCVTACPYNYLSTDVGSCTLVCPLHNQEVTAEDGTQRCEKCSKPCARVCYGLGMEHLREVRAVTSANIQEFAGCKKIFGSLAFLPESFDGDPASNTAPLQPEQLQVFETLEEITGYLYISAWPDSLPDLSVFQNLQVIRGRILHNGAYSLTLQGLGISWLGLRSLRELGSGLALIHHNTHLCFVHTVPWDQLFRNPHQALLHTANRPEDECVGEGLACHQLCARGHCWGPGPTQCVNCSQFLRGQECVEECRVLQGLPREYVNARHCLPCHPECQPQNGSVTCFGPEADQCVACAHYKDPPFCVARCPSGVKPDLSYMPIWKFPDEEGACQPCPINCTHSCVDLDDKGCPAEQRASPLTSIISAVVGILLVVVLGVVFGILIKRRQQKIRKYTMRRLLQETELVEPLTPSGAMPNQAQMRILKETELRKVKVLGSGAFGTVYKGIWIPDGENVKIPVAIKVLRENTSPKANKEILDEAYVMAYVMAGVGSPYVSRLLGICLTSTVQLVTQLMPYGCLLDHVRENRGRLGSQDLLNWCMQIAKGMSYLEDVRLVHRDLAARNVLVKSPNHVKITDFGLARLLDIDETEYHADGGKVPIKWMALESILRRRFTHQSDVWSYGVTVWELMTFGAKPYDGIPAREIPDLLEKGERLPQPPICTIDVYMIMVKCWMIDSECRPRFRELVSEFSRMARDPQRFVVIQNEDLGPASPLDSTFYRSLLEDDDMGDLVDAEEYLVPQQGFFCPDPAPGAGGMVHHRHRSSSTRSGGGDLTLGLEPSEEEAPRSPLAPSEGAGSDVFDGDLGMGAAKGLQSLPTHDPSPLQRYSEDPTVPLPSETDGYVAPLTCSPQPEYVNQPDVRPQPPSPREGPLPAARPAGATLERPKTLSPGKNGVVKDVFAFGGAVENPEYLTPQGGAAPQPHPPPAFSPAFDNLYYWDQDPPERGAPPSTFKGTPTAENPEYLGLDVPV
Sequence of EGFR wt (P00533 25-1210): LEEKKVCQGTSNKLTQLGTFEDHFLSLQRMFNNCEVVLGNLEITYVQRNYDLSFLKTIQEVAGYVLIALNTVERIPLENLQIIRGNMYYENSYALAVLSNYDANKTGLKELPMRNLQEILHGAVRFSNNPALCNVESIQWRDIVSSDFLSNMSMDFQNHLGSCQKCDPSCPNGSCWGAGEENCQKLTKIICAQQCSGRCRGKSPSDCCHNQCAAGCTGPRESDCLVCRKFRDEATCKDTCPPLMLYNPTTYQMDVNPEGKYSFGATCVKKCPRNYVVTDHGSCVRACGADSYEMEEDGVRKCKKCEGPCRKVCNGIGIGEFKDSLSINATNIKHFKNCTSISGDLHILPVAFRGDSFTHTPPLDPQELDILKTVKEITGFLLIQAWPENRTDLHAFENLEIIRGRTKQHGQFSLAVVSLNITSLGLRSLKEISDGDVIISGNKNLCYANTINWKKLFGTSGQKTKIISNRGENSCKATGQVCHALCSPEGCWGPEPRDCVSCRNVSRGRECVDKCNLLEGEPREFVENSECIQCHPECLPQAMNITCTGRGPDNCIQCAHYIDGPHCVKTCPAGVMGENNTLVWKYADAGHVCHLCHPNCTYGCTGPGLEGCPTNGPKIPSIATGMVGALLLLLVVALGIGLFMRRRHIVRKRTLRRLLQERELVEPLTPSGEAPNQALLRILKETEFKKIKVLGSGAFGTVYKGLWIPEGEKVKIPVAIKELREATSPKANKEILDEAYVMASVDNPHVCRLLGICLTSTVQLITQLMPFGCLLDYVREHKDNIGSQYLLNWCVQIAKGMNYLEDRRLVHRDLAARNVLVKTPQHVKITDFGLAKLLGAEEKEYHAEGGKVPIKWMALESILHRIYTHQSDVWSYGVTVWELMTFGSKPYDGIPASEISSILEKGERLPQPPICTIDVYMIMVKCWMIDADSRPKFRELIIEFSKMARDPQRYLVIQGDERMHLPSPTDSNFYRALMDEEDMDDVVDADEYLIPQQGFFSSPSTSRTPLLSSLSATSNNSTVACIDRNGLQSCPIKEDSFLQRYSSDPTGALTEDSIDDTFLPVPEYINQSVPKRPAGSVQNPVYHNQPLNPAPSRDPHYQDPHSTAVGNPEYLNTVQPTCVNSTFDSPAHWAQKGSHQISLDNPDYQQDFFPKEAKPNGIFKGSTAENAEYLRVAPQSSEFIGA

| Structure (SMILES) | IC50 [1] [nM] | GI50 [2] [nM] | GI50 [3] [nM] | IC50 [4] [nM] | IC50 [5] [nM] | IC50 [6] [nM] | IC50 [7] [nM] |
| --- | --- | --- | --- | --- | --- | --- | --- |
| C=CC(=O)Nc1cc(-c2c(-c3cccc(CN4CCN(C(C)=O)CC4)c3)[nH]c3ncc(C(=O)OC(C)C)cc23)ccc1C [Example 186, isopropyl 2-(3-((4-acetylpiperazin-1-yl)methyl)phenyl)-3-(3-acrylamido-4-methylphenyl)-1H-pyrrolo[2,3-b]pyridine-5-carboxylate] | 100 to 500 | 1000 to 10000 | 1000 to 10000 | 100 to 500 | ≤ 100 | 1000 to 100000 | 1000 to 100000 |
| C=CC(=O)Nc1cc(-c2c(-c3ccc(N4CCN(C)CC4)nc3)[nH]c3ncc(C(=O)OC(C)C)cc23)ccc1C [Example 163, isopropyl 3-(3-acrylamido-4-methylphenyl)-2-(6-(4-methylpiperazin-1-yl)pyridin-3-yl)-1H-pyrrolo[2,3-b]pyridine-5-carboxylate] | ≤ 100 | 500 to 1000 | 500 to 1000 | ≤ 100 | ≤ 100 | 500 to 1000 | 1000 to 100000 |
| C=CC(=O)Nc1cc(-c2c(-c3cccc(C(=O)NCCCN4CCN(CC)CC4)c3)[nH]c3nccc(Cl)c23)ccc1C [Example 54, 3-(3-(3-acrylamido-4-methylphenyl)-4-chloro-1H-pyrrolo[2,3-b]pyridin-2-yl)-N-(3-(4-ethylpiperazin-1-yl)propyl)benzamide] | 100 to 500 | 1000 to 10000 | 1000 to 10000 | ≤ 100 | ≤ 100 | 100 to 500 | 1000 to 100000 |
| C=CC(=O)Nc1cc(-c2c(-c3ccc(OCCO)cc3)[nH]c3ncc(C(=O)OC(C)C)cc23)ccc1C [Example 178, isopropyl 3-(3-acrylamido-4-methylphenyl)-2-(4-(2-hydroxyethoxy)phenyl)-1H-pyrrolo[2,3-b]pyridine-5-carboxylate] | 100 to 500 | 1000 to 10000 | 500 to 1000 | 100 to 500 | ≤ 100 | 1000 to 100000 | 1000 to 100000 |
| Cc1ccc(-c2c(-c3ccc(N4CCN(C)CC4)cc3)[nH]c3ncc(C(=O)OC(C)C)cc23)cc1NC(=O)/C=C/CN(C)C [Example 148, (E)-isoproyl 3-(3-(4-(dimethylamino)but-2-enamido)-4-methylphenyl)-2-(4-(4-methylpiperazin-1-yl)phenyl)-1H-pyrrolo[2,3-b]pyridine-5-carboxylate 2,2,2-trifluoroacetate] | ≤ 100 | 100 to 500 | 500 to 1000 | ≤ 100 | ≤ 100 | 500 to 1000 | 1000 to 100000 |
| C=CC(=O)NCc1cccc(-c2c(-c3ccc(N4CCN(C)CC4)cc3)[nH]c3ncc(C(=O)OC(C)C)cc23)c1 [Example 203, isopropyl 3-(3-(acrylamidomethyl)phenyl)-2-(4-(4-methylpiperazin-1-yl)phenyl)-1H-pyrrolo[2,3-b]pyridine-5-carboxylate 2,2,2-trifluoroacetate] | 1000 to 10000 | 1000 to 10000 | 1000 to 10000 | 500 to 1000 | 100 to 500 | 1000 to 100000 | 1000 to 100000 |
| C=CC(=O)Nc1cc(-c2c(-c3cnc(N4CCOCC4)nc3)[nH]c3ncc(C(=O)OC(C)C)cc23)ccc1C [Example 173, isopropyl 3-(3-acrylamido-4-methylphenyl)-2-(2-morpholinopyrimidin-5-yl)-1H-pyrrolo[2,3-b]pyridine-5-carboxylate] | > 10000 | 1000 to 10000 | 1000 to 10000 | 1000 to 100000 | 500 to 1000 | 1000 to 100000 | 1000 to 100000 |

Further lines, results first:

| IC50 [1] [nM] | GI50 [2] [nM] | GI50 [3] [nM] | IC50 [4] [nM] | IC50 [5] [nM] | IC50 [6] [nM] | IC50 [7] [nM] | Structure (SMILES) |
| --- | --- | --- | --- | --- | --- | --- | --- |
| ≤ 100 | 100 to 500 | 100 to 500 | ≤ 100 | ≤ 100 | 100 to 500 | 1000 to 100000 | Cc1ccc(-c2c(-c3ccc(N4CCN(C)CC4)cc3)[nH]c3nccc(Cl)c23)cc1NC(=O)/C=C/CN(C)C [Example 143, (E)-N-(5-(4-chloro-2-(4-(4-methylpiperazin-1-yl)phenyl)-1H-pyrrolo[2,3-b]pyridin-3-yl)-2-methylphenyl)-4-(dimethylamino)but-2-enamide 2,2,2-trifluoroacetate] |
| ≤ 100 | 500 to 1000 | 100 to 500 | ≤ 100 | ≤ 100 | ≤ 100 | 500 to 1000 | C=CC(=O)Nc1cc(-c2c(-c3ccc(N4CCN(C)CC4)cc3)[nH]c3nccc(Cl)c23)cc(C)c1C [Example 150, N-(5-(4-chloro-2-(4-(4-methylpiperazin-1-yl)phenyl)-1H-pyrrolo[2,3-b]pyridin-3-yl)-2,3-dimethylphenyl)acrylamide 2,2,2-trifluoroacetate] |
| ≤ 100 | > 10000 | > 10000 | ≤ 100 | ≤ 100 | > 10000 | > 10000 | C=CC(=O)Nc1cc(-c2c(-c3ccc(N4CCN(C)CC4)cc3)[nH]c3ncc(CC(=O)O)cc23)ccc1C [Example 189, 2-(3-(3-acrylamido-4-methylphenyl)-2-(4-(4-methylpiperazin-1-yl)phenyl)-1H-pyrrolo[2,3-b]pyridin-5-yl)acetic acid 2,2,2-trifluoroacetate] |
| ≤ 100 | 1000 to 10000 | 1000 to 10000 | ≤ 100 | ≤ 100 | 1000 to 100000 | 1000 to 100000 | C#CC(=O)Nc1cc(-c2c(-c3ccc(N4CCN(C)CC4)cc3)[nH]c3nccc(Cl)c23)ccc1C [Example 144, N-(5-(4-chloro-2-(4-(4-methylpiperazin-1-yl)phenyl)-1H-pyrrolo[2,3-b]pyridin-3-yl)-2-methylphenyl)propiolamide 2,2,2-trifluoroacetate] |
| 1000 to 10000 | 1000 to 10000 | 1000 to 10000 | 100 to 500 | ≤ 100 | 100 to 500 | 1000 to 100000 | C=CC(=O)Nc1cc(-c2c(-c3ccc(N4CCN(C)CC4)cc3)[nH]c3ncc(C(=O)NCc4nc5ccccc5[nH]4)cc23)ccc1C [Example 125, N-((1H-benzo[d]imidazol-2-yl)methyl)-3-(3-acrylamido-4-methylphenyl)-2-(4-(4-methylpiperazin-1-yl)phenyl)-1H-pyrrolo[2,3-b]pyridine-5-carboxamide] |
| 500 to 1000 | 1000 to 10000 | 1000 to 10000 | ≤ 100 | ≤ 100 | 100 to 500 | 1000 to 100000 | C/C=C/C(=O)Nc1cc(-c2c(-c3ccc(N4CCN(C)CC4)cc3)[nH]c3nccc(Cl)c23)ccc1C [Example 142, (E)-N-(5-(4-chloro-2-(4-(4-methylpiperazin-1-yl)phenyl)-1H-pyrrolo[2,3-b]pyridin-3-yl)-2-methylphenyl)but-2-enamide 2,2,2-trifluoroacetate] |
| ≤ 100 | 500 to 1000 | 500 to 1000 | ≤ 100 | ≤ 100 | 100 to 500 | 1000 to 100000 | C=CC(=O)Nc1cc(-c2c(-c3ccc(N4CCN(C)CC4)cc3)[nH]c3ncc(C(=O)OC4COC4)cc23)ccc1C [Example 141, oxetan-3-yl 3-(3-acrylamido-4-methylphenyl)-2-(4-(4-methylpiperazin-1-yl)phenyl)-1H-pyrrolo[2,3-b]pyridine-5-carboxylate] |
